Results taken from PMC6078987, “Molecular insights into antibiotic resistance - how a binding protein traps albicidin” (Nature Communications, 2018).
“And” between values parts separate entries of the source, which are not always exact repeats. Equal values may be shown once.

Assays:
AlbAS [1] = molecular target: T1, AlbAS (Klebsiella oxytoca, UniProt Q8KRS7); experiment: Fluorescence quenching binding assay (tryptophan fluorescence) with AlbAS
T1 sequence (Q8KRS7 1-221): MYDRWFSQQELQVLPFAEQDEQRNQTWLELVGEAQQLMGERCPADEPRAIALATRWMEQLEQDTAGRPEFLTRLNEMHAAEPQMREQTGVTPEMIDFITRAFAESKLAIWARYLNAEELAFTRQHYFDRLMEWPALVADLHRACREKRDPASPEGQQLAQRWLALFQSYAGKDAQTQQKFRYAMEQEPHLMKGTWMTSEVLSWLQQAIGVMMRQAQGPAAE
Experimental: (§1) Fluorescence quenching measurements were performed by monitoring tryptophan fluorescence of AlbAS (20 nM), AlbAL (20 nM), AlbASNTD, and AlbASCTD (100 nM) on a FluoroMax 2 spectrometer from Horiba (Potsdam, Germany). The excitation wavelength was set to λexc = 280 nm. Emission spectra were recorded from λem = 290–450 nm with a scanning speed of 1 nm s^−1 and an integration time of 1 s. The excitation and emission slit widths were set to 8 and 4 nm, respectively. Proteins were solved in 50 mM sodium phosphate buffer with 150 mM NaCl and 0.01% DMSO at pH 6.8. All measurements were performed twice and the standard deviation is given for the Kd and the Hill factor n. Data evaluation was performed by integration of the emission band (318–410 nm for AlbAS, 316–412 nm for AlbAL, and 319–390 nm for AlbASNTD and AlbASCTD) for every titration step. The area under the curve (AUC) of the buffer blank (buffer with 0.01% DMSO) was subtracted from the measured titration data. The quenching factor was determined by subtraction of AUCs for each titration step from the AUC of the protein in the absence of ligand. For determination of the AlbAS– and AlbAL–albicidin Kd values, the data were fitted to Eq. (2).2 Y=Bmax[L]^n/Kdn+[L]^n where [L], n, and Bmax denote the total ligand concentration, the Hill coefficient, and the maximum binding capacity of the protein, respectively.
For the determination of the Kd for AlbAS–compound 7 the data were fitted to Eq. (3).3 Y=Pt+L+Kd-Pt+L+Kd^2-4PtL/2 where Pt is the total protein concentration.

AlbASCTD = AlbASCTD (Klebsiella oxytoca, UniProt Q8KRS7); experiment: Fluorescence quenching binding assay with AlbASCTD; conditions: AlbASCTD 100 nM, n constrained to 1
Experimental: as §1

AlbAS [2] = molecular target: T1, AlbAS; experiment: CD-detected thermal unfolding of AlbAS; type: binding; conditions: 1.5-fold ligand, 20 µM protein; AlbAS alone 66 °C
Experimental: (§2) For determination of the melting temperature and information on protein-ligand stability, CD measurements were performed on a J-815 CD spectrometer (Jasco, Groß-Umstadt, Germany). Protein samples (2.0 mM for AlbAS and 0.2 mM for AlbAL) were saturated with 1.5-fold albicidin and diluted to a protein concentration of 20 μM in order to ensure a final DMSO content of only 0.05% for AlbAS and 0.5% for AlbAL. A volume of 250 μL of the reaction mixture was transferred into a quartz cuvette with 1 mm path length. Six far-UV spectra were accumulated in a wavelength range of 195–300 nm (203–300 nm for AlbAL) at three different temperatures (10, 21, and 90 °C) with a scanning speed of 50 nm s^−1. For evaluation of the spectra the measured buffer blank (50 mM sodium hydrogen phosphate and 100 mM NaCl, pH 6.8) was subtracted from the averaged spectra. The temperature curves were recorded from 10–90 °C in 0.5 °C min^−1 steps while monitoring the ellipticity at 215 nm (218 nm for ALbAL). […] The melting temperatures of AlbAS, AlbAS–albicidin, AlbAS–compound 5, AlbAS–compound 7, AlbAL, and AlbAL–albicidin were determined by nonlinear regression of the measured data using Eq. (1). […] The Tm was thus determined by fitting the second transition representing the stabilized domain/species. […]

AlbAL [3] = molecular target: T2, AlbAL (Klebsiella oxytoca, UniProt A0A9P0U153); experiment: CD-detected thermal unfolding of AlbAL; type: binding; conditions: 1.5-fold ligand, 20 µM protein; AlbAL alone 71 °C
Experimental: as §2

AlbAL [4] = molecular target: T2, AlbAL; experiment: Fluorescence quenching binding assay with AlbAL
Experimental: as §1

Klebsiella pneumoniae = experiment: MIC assay, clinical isolates; type: cell-based; conditions: seven Klebsiella pneumoniae strains
Experimental: (§3) The MIC assay was performed by Antiinfectives Intelligence GmbH (Rheinbach, Germany) using internationally standardized protocols and employing clinical isolates of K. oxytoca, K. pneumoniae, R. ornithologica, P. aeruginosa, A. baumannii and E. cloacae.

P. aeruginosa = experiment: MIC assay, clinical isolates; type: cell-based; conditions: Pseudomonas aeruginosa
Experimental: as §3

R. ornithinolytica = experiment: MIC assay, clinical isolates; type: cell-based
Experimental: as §3

[5] = system: AlbAS in competition with gyrase construct GyrBA59; experiment: NMR-based in vitro competition experiment of AlbAS and GyrBA59; type: binding, E. coli; conditions: 30 µM each of GyrBA59, AlbAS and albicidin; MgCl2, ATP, pBR322
Experimental: For the competition experiment with the DNA gyrase construct GyrBA59, 1.7 mM ATP was incubated with 3.4 mM MgCl2 for 10 min. Subsequently, 30 µM GyrBA59 and 3 µg supercoiled pBR322 plasmid DNA (Inspiralis) were added and incubated for another 10 min. Finally, 30 µM ^15N-labeled AlbAS were added to the mixture followed by 30 µM albicidin (10% D2O and 5% DMSO final concentration). Owing to the low protein concentrations (to achieve a 1:1 ratio of gyrase and AlbAS), a ^1H-^15N band-selective optimized flip-angle short-transient heteronuclear multiple quantum coherence (SOFAST HMQC)[44] experiment was performed. The ^1H-^15N SOFAST HMQC was recorded with 2048 scans and with acquisition times of 45 and 38 ms for the ^1H and ^15N dimensions, respectively. Measurements were performed at 303.2 K. The control experiment was performed under the same conditions but without the addition of MgCl2, ATP, pBR322 plasmid DNA, and GyrBA59.

T2 sequence (A0A9P0U153 entry or part of it): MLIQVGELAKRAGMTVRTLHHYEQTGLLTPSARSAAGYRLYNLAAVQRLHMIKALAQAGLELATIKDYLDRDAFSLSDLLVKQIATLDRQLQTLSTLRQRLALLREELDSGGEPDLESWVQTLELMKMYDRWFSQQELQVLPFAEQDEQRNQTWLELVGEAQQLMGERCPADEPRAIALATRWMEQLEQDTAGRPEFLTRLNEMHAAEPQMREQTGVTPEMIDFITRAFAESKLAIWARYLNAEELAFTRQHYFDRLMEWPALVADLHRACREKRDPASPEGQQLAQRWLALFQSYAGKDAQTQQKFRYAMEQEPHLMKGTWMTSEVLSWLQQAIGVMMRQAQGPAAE

COc1c(NC(=O)c2ccc(NC(=O)c3ccc(NC(=O)[C@H](CC#N)NC(=O)c4ccc(NC(=O)/C(C)=C/c5ccc(O)cc5)cc4)cc3)c(OC)c2O)ccc(C(=O)O)c1O [albicidin]
Hill coefficient, n (AlbAS [1]; AlbAS 20 nM, fluorescence quenching): 3.0 ± 0.5 | Kd (AlbAS [1]; AlbAS 20 nM, fluorescence quenching, pH 6.8): ≤ 5.6 nM and 5.6 nM | quenching of AlbAS emission (AlbAS [1]; maximal quenching by ligand): 100% | Kd (AlbASCTD): 600 ± 100 nM | melting temperature Tm of AlbAS upon ligand binding (AlbAS [2]): 81 °C | melting temperature Tm of AlbAL upon ligand binding (AlbAL [3]): 74 °C | Kd (AlbAL [4]): 7.4 ± 0.9 nM | Hill coefficient, n (AlbAL [4]; AlbAL 20 nM, fluorescence quenching): 2.0 ± 0.2 | MIC (Klebsiella pneumoniae): ≥ 64 µg/mL | MIC (P. aeruginosa): ≥ 64 µg/mL | MIC (R. ornithinolytica): ≥ 64 µg/mL | competition between AlbAS and GyrBA59 for the ligand (in words) [5]: AlbAS fully populated the albicidin-bound state
